From ChEMBL document CHEMBL4665624, “Synthesis of 5-(4-(1H-phenanthro[9,10-d]imidazol-2-yl)benzylidene)thiazolidine-2,4-dione as promising DNA and serum albumin-binding agents and evaluation of antitumor activity” (Eur J Med Chem, 2019)

Assays:
[1] = test system: RPMI-8226; assay: Antitumor activity against human RPMI8226 cells assessed as cell growth inhibition at 10 uM incubated for 48 hrs by sulforhodamine B assay; format: functional; conditions: read-out: GI
[2] = test system: MCF7; assay: Antitumor activity against human MCF7 cells assessed as cell growth inhibition at 10 uM incubated for 48 hrs by sulforhodamine B assay; format: functional; conditions: read-out: GI
[3] = test system: SK-MEL-28; assay: Antitumor activity against human SK-MEL-28 cells assessed as cell growth inhibition at 10 uM incubated for 48 hrs by sulforhodamine B assay; format: functional; conditions: read-out: GI
[4] = test system: MDA-MB-231; assay: Antitumor activity against human MDA-MB-231/ATCC cells assessed as cell growth inhibition at 10 uM incubated for 48 hrs by sulforhodamine B assay; format: functional; conditions: read-out: GI
[5] = test system: NCI-H226; assay: Antitumor activity against human NCI-H226 assessed as cell growth inhibition at 10 uM incubated for 48 hrs by sulforhodamine B assay; format: functional; conditions: read-out: GI
[6] = test system: KM12; assay: Antitumor activity against human KM12 cells assessed as cell growth inhibition at 10 uM incubated for 48 hrs by sulforhodamine B assay; format: functional; conditions: read-out: GI
[7] = test system: PC-3; assay: Antitumor activity against human PC-3 cells assessed as cell growth inhibition at 10 uM incubated for 48 hrs by sulforhodamine B assay; format: functional; conditions: read-out: GI
[8] = test system: HCT-15; assay: Antitumor activity against human HCT15 cells assessed as cell growth inhibition at 10 uM incubated for 48 hrs by sulforhodamine B assay; format: functional; conditions: read-out: GI
[9] = test system: HOP-92; assay: Antitumor activity against human HOP92 cells assessed as cell growth inhibition at 10 uM incubated for 48 hrs by sulforhodamine B assay; format: functional; conditions: read-out: GI
[10] = test system: IGROV-1; assay: Antitumor activity against human IGROV1 cells assessed as cell growth inhibition at 10 uM incubated for 48 hrs by sulforhodamine B assay; format: functional; conditions: read-out: GI
[11] = test system: HT-29; assay: Antitumor activity against human HT-29 cells assessed as cell growth inhibition at 10 uM incubated for 48 hrs by sulforhodamine B assay; format: functional; conditions: read-out: GI
[12] = test system: MOLT-4; assay: Antitumor activity against human MOLT4 cells assessed as cell growth inhibition at 10 uM incubated for 48 hrs by sulforhodamine B assay; format: functional; conditions: read-out: GI
[13] = test system: ACHN; assay: Antitumor activity against human ACHN cells assessed as cell growth inhibition at 10 uM incubated for 48 hrs by sulforhodamine B assay; format: functional; conditions: read-out: GI
[14] = test system: OVCAR-4; assay: Antitumor activity against human OVCAR-4 cells assessed as cell growth inhibition at 10 uM incubated for 48 hrs by sulforhodamine B assay; format: functional; conditions: read-out: GI
[15] = test system: NCI-H23; assay: Antitumor activity against human NCI-H23 cells assessed as cell growth inhibition at 10 uM incubated for 48 hrs by sulforhodamine B assay; format: functional; conditions: read-out: GI
[16] = test system: UACC-62; assay: Antitumor activity against human UACC-62 cells assessed as cell growth inhibition at 10 uM incubated for 48 hrs by sulforhodamine B assay; format: functional; conditions: read-out: GI
[17] = test system: OVCAR-8; assay: Antitumor activity against human OVCAR-8 cells assessed as cell growth inhibition at 10 uM incubated for 48 hrs by sulforhodamine B assay; format: functional; conditions: read-out: GI
[18] = test system: HL-60(TB); assay: Antitumor activity against human HL-60(TB) cells assessed as cell growth inhibition at 10 uM incubated for 48 hrs by sulforhodamine B assay; format: functional; conditions: read-out: GI
[19] = test system: U-251; assay: Antitumor activity against human U251 cells assessed as cell growth inhibition at 10 uM incubated for 48 hrs by sulforhodamine B assay; format: functional; conditions: read-out: GI
[20] = test system: NCI-H460; assay: Antitumor activity against human NCI-H460 assessed as cell growth inhibition at 10 uM incubated for 48 hrs by sulforhodamine B assay; format: functional; conditions: read-out: GI
[21] = test system: NCI-H522; assay: Antitumor activity against human NCI-H522 cells assessed as cell growth inhibition at 10 uM incubated for 48 hrs by sulforhodamine B assay; format: functional; conditions: read-out: GI
[22] = test system: Malme-3M; assay: Antitumor activity against human MALME-3M cells assessed as cell growth inhibition at 10 uM incubated for 48 hrs by sulforhodamine B assay; format: functional; conditions: read-out: GI
[23] = test system: A498; assay: Antitumor activity against human A498 cells assessed as cell growth inhibition at 10 uM incubated for 48 hrs by sulforhodamine B assay; format: functional; conditions: read-out: GI
[24] = test system: UO-31; assay: Antitumor activity against human UO-31 cells assessed as cell growth inhibition at 10 uM incubated for 48 hrs by sulforhodamine B assay; format: functional; conditions: read-out: GI
[25] = test system: EKVX; assay: Antitumor activity against human EKVX cells assessed as cell growth inhibition at 10 uM incubated for 48 hrs by sulforhodamine B assay; format: functional; conditions: read-out: GI
[26] = test system: OVCAR-3; assay: Antitumor activity against human OVCAR-3 cells assessed as cell growth inhibition at 10 uM incubated for 48 hrs by sulforhodamine B assay; format: functional; conditions: read-out: GI
[27] = test system: Hs-578T; assay: Antitumor activity against human HS 578T cells assessed as cell growth inhibition at 10 uM incubated for 48 hrs by sulforhodamine B assay; format: functional; conditions: read-out: GI
[28] = test system: SNB-75; assay: Antitumor activity against human SNB-75 cells assessed as cell growth inhibition at 10 uM incubated for 48 hrs by sulforhodamine B assay; format: functional; conditions: read-out: GI
[29] = test system: HCT-116; assay: Antitumor activity against human HCT116 cells assessed as cell growth inhibition at 10 uM incubated for 48 hrs by sulforhodamine B assay; format: functional; conditions: read-out: GI
[30] = test system: MDA-MB-468; assay: Antitumor activity against human MDA-MB-468 cells assessed as cell growth inhibition at 10 uM incubated for 48 hrs by sulforhodamine B assay; format: functional; conditions: read-out: GI
[31] = test system: NCI/ADR-RES; assay: Antitumor activity against human NCI/ADR-RES cells assessed as cell growth inhibition at 10 uM incubated for 48 hrs by sulforhodamine B assay; format: functional; conditions: read-out: GI
[32] = test system: MDA-MB-435; assay: Antitumor activity against human MDA-MB-435 cells assessed as cell growth inhibition at 10 uM incubated for 48 hrs by sulforhodamine B assay; format: functional; conditions: read-out: GI
[33] = test system: LOX IMVI; assay: Antitumor activity against human LOX IMVI cells assessed as cell growth inhibition at 10 uM incubated for 48 hrs by sulforhodamine B assay; format: functional; conditions: read-out: GI
[34] = test system: 786-0; assay: Antitumor activity against human 786-0 cells assessed as cell growth inhibition at 10 uM incubated for 48 hrs by sulforhodamine B assay; format: functional; conditions: read-out: GI
[35] = test system: SW-620; assay: Antitumor activity against human SW620 cells assessed as cell growth inhibition at 10 uM incubated for 48 hrs by sulforhodamine B assay; conditions: SW-620, 48 h, read-out: GI
[36] = test system: RXF 393; assay: Antitumor activity against human RXF 393 cells assessed as cell growth inhibition at 10 uM incubated for 48 hrs by sulforhodamine B assay; format: functional; conditions: read-out: GI
[37] = test system: SF-295; assay: Antitumor activity against human SF295 cells assessed as cell growth inhibition at 10 uM incubated for 48 hrs by sulforhodamine B assay; format: functional; conditions: read-out: GI
[38] = test system: SK-OV-3; assay: Antitumor activity against human SK-OV-3 cells assessed as cell growth inhibition at 10 uM incubated for 48 hrs by sulforhodamine B assay; format: functional; conditions: read-out: GI
[39] = test system: COLO 205; assay: Antitumor activity against human COLO205 cells assessed as cell growth inhibition at 10 uM incubated for 48 hrs by sulforhodamine B assay; format: functional; conditions: read-out: GI
[40] = test system: CCRF-CEM; assay: Antitumor activity against human CCRF-CEM cells assessed as cell growth inhibition at 10 uM incubated for 48 hrs by sulforhodamine B assay; format: functional; conditions: read-out: GI
[41] = test system: SF-268; assay: Antitumor activity against human SF268 cells assessed as cell growth inhibition at 10 uM incubated for 48 hrs by sulforhodamine B assay; format: functional; conditions: read-out: GI
[42] = test system: HCC 2998; assay: Antitumor activity against human HCC2998 cells assessed as cell growth inhibition at 10 uM incubated for 48 hrs by sulforhodamine B assay; format: functional; conditions: read-out: GI
[43] = test system: K562; assay: Antitumor activity against human K562 cells assessed as cell growth inhibition at 10 uM incubated for 48 hrs by sulforhodamine B assay; format: functional; conditions: read-out: GI
[44] = test system: M14; assay: Antitumor activity against human M14 cells assessed as cell growth inhibition at 10 uM incubated for 48 hrs by sulforhodamine B assay; format: functional; conditions: read-out: GI
[45] = test system: SNB-19; assay: Antitumor activity against human SNB-19 cells assessed as cell growth inhibition at 10 uM incubated for 48 hrs by sulforhodamine B assay; format: functional; conditions: read-out: GI
[46] = test system: SN12C; assay: Antitumor activity against human SN12C cells assessed as cell growth inhibition at 10 uM incubated for 48 hrs by sulforhodamine B assay; format: functional; conditions: read-out: GI
[47] = test system: BT-549; assay: Antitumor activity against human BT-549 cells assessed as cell growth inhibition at 10 uM incubated for 48 hrs by sulforhodamine B assay; format: functional; conditions: read-out: GI
[48] = test system: SR; assay: Antitumor activity against human SR cells assessed as cell growth inhibition at 10 uM incubated for 48 hrs by sulforhodamine B assay; format: functional; conditions: read-out: GI

O=C1c2ccccc2C(=O)c2c1ccc1[nH]c(-c3ccc(-c4nc5c6ccccc6c6ccccc6c5[nH]4)cc3)nc21
inhibition of growth at 10 µM [1]: 10.4% | inhibition of growth at 10 µM [2]: < 10% | inhibition of growth at 10 µM [3]: < 10% | inhibition of growth at 10 µM [4]: 14.4% | inhibition of growth at 10 µM [5]: < 10% | inhibition of growth at 10 µM [6]: < 10% | inhibition of growth at 10 µM [7]: < 10% | inhibition of growth at 10 µM [8]: < 10% | inhibition of growth at 10 µM [9]: < 10% | inhibition of growth at 10 µM [10]: < 10% | inhibition of growth at 10 µM [11]: < 10% | inhibition of growth at 10 µM [12]: 12.4% | inhibition of growth at 10 µM [13]: < 10% | inhibition of growth at 10 µM [14]: 89% | inhibition of growth at 10 µM [15]: < 10% | inhibition of growth at 10 µM [16]: < 10% | inhibition of growth at 10 µM [17]: < 10% | inhibition of growth at 10 µM [18]: < 10% | inhibition of growth at 10 µM [19]: < 10% | inhibition of growth at 10 µM [20]: < 10% | inhibition of growth at 10 µM [21]: < 10% | inhibition of growth at 10 µM [22]: < 10% | inhibition of growth at 10 µM [23]: < 10% | inhibition of growth at 10 µM [24]: 22.6% | inhibition of growth at 10 µM [25]: 10.3% | inhibition of growth at 10 µM [26]: < 10% | inhibition of growth at 10 µM [27]: < 10% | inhibition of growth at 10 µM [28]: 10% | inhibition of growth at 10 µM [29]: < 10% | inhibition of growth at 10 µM [30]: < 10% | inhibition of growth at 10 µM [31]: < 10% | inhibition of growth at 10 µM [32]: < 10% | inhibition of growth at 10 µM [33]: < 10% | inhibition of growth at 10 µM [34]: < 10% | inhibition of growth at 10 µM [35]: < 10% | inhibition of growth at 10 µM [36]: < 10% | inhibition of growth at 10 µM [37]: < 10% | inhibition of growth at 10 µM [38]: < 10% | inhibition of growth at 10 µM [39]: < 10% | inhibition of growth at 10 µM [40]: < 10% | inhibition of growth at 10 µM [41]: < 10% | inhibition of growth at 10 µM [42]: < 10% | inhibition of growth at 10 µM [43]: < 10% | inhibition of growth at 10 µM [44]: < 10% | inhibition of growth at 10 µM [45]: < 10% | inhibition of growth at 10 µM [46]: < 10% | inhibition of growth at 10 µM [47]: < 10% | inhibition of growth at 10 µM [48]: 11.4%
